Results published in patent US9458172B2, “Pyridinyl and pyrimidinyl sulfoxide and sulfone derivatives” (priority 2012, dated 2016).
Read-outs that look alike come from different tables or passages of the source.

Tests used:
A2780 cells = assay: In-Vitro Cell Proliferation Assay (SRB)
NAMPT = NAMPT (Homo sapiens (Human), UniProt P43490); assay: Biochemical Inhibition Assay (NAMPT enzymatic reaction, NMN quantified by mass spectrometry); settings: 33 nM recombinant His-tagged NAMPT, 1 μM NAM, 30 min at rt
Sequence of NAMPT (P43490 whole entry): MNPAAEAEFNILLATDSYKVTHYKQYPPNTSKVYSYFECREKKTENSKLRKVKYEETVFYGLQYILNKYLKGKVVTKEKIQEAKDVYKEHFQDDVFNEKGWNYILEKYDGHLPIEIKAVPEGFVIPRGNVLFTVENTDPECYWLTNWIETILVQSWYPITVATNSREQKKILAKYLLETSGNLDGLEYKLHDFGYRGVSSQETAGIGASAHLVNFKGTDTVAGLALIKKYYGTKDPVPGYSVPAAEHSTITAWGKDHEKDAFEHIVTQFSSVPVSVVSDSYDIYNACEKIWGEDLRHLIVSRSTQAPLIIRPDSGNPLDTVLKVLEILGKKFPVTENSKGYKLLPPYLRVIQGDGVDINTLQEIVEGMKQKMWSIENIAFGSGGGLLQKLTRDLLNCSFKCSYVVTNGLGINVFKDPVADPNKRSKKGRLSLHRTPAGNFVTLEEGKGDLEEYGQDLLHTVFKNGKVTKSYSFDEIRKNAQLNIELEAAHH
Method in brief: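 His-tagged human NAMPT from E. coli preincubated 15 min at rt with compound in 50 mM Hepes pH 7.5, 50 mM NaCl, 5 mM MgCl2, 1 mM THP, then reacted 30 min at rt with 1 μM NAM, […] PRPP, 2.5 mM ATP. NMN quantified by RapidFire mass spectrometry, normalized to L-Cystathionine, background subtracted.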

[1] = Homo sapiens, A2780, 72 h, read-out: Cell Proliferation (IC50)
[2] = Homo sapiens, A2780, 72 h, read-out: Cell Proliferation (IC50), A2780 cells, 72 h, sulforhodamine B

IC50 (A2780 cells; [1])	IC50 (NAMPT)	IC50 (A2780 cells; read-out: Cell Proliferation (IC50), A2780 cells, 72 h, sulforhodamine B)	IC50 (A2780 cells; [2])	SMILES
309 nM	357 nM	–	–	O=C(NCc1ccc([S+]([O-])c2cc(F)cc(F)c2)cn1)c1cnc2[nH]ncc2c1 (racemic) [Example 15, 1H-Pyrazolo[3,4-b]pyridine-5-carboxylic acid [5-(3,5-difluoro-benzenesulfinyl)-pyridin-2-ylmethyl]-amide (racemic)]
25.6 nM	69.3 nM	–	–	CC(C)CN1CCC([S+]([O-])c2ccc(CNC(=O)c3cc4ccncc4o3)nc2)CC1 (racemic) [Example 102, Furo[2,3-c]pyridine-2-carboxylic acid [5-(1-isobutyl-piperidine-4-sulfinyl)-pyridin-2-ylmethyl]-amide (racemic)]
31.3 nM	49.2 nM	–	–	O=C(NCc1ccc(S(=O)(=O)N2CCN(C3CCOCC3)CC2)cn1)c1cc2ccncc2o1 [Example 127, N-[[5-(4-tetrahydropyran-4-ylpiperazin-1-yl)sulfonyl-2-pyridyl]methyl]furo[2,3-c]pyridine-2-carboxamide]
124 nM	20.5 nM	–	–	O=C(NCc1ccc(S(=O)(=O)c2ccc(C(F)(F)F)nc2)cn1)c1cc2ccncc2o1 [Example 79, Furo[2,3-c]pyridine-2-carboxylic acid [5-(6-trifluoromethyl-pyridine-3-sulfonyl)-pyridin-2-ylmethyl]-amide]
49.4 nM	143 nM	–	–	O=C(NCc1ccc(S(=O)(=O)c2cncc(Cl)c2)cn1)c1cnc2[nH]ncc2c1 [Example 164, N-[[5-[(5-chloro-3-pyridyl)sulfonyl]-2-pyridyl]methyl]-1H-pyrazolo[3,4-b]pyridine-5-carboxamide]
358 nM	27.7 nM	–	–	CCCC(=O)N1CCC(S(=O)(=O)c2ccc(CNC(=O)N3Cc4ccncc4C3)nc2)CC1 [Example 108, 1,3-Dihydro-pyrrolo[3,4-c]pyridine-2-carboxylic acid [5-(1-butyryl-piperidine-4-sulfonyl)-pyridin-2-ylmethyl]-amide]
14.1 nM	2.2 nM	–	–	CN1CCN(c2ccc(S(=O)(=O)c3ccc(CNC(=O)c4cnc5nccn5c4)nc3)cn2)CC1 [Example 47, Imidazo[1,2-a]pyrimidine-6-carboxylic acid {5-[6-(4-methyl-piperazin-1-yl)-pyridine-3-sulfonyl]-pyridin-2-ylmethyl}-amide]
52.6 nM	6.5 nM	–	–	O=C(NCc1ccc(S(=O)(=O)c2cc(F)cc(F)c2)cn1)c1cnc2nccn2c1 [Example 2, Imidazo[1,2-a]pyrimidine-6-carboxylic acid [5-(3,5-difluoro-benzenesulfonyl)-pyridin-2-ylmethyl]-amide]
63.1 nM	202 nM	–	–	O=C(NCc1ccc([S+]([O-])C2CCN(CC(F)(F)F)CC2)cn1)c1ccc2nccn2c1 (stereo not drawn) [Example 173, N-[[5-[[1-(2,2,2-trifluoroethyl)-4-piperidyl]sulfinyl]-2-pyridyl]methyl]imidazo[1,2-a]pyridine-6-carboxamide]
86.3 nM	249 nM	–	–	O=C(NCc1ccc(S(=O)(=O)C2CCN(C3CCOCC3)CC2)cn1)c1cc2cnccc2[nH]1 [Example 42, 1H-Pyrrolo[3,2-c]pyridine-2-carboxylic acid {5-[1-(tetrahydro-pyran-4-yl)-piperidine-4-sulfonyl]-pyridin-2-ylmethyl)-amide]
2000 nM	68.2 nM	–	–	COCC(=O)N1CCC(S(=O)(=O)c2ccc(CNC(=O)N3Cc4ccncc4C3)nc2)CC1 [Example 121, N-[[5-[[1-(2-methoxyacetyl)-4-piperidyl]sulfonyl]-2-pyridyl]methyl]-1,3-dihydropyrrolo[3,4-c]pyridine-2-carboxamide]
551 nM	59.4 nM	–	–	O=C(NCc1ccc(S(=O)(=O)c2ccc(C(F)(F)F)nc2)cn1)c1cc2ccncc2s1 [Example 78, Thieno[2,3-c]pyridine-2-carboxylic acid [5-(6-trifluoromethyl-pyridine-3-sulfonyl)-pyridin-2-ylmethyl]-amide]
940 nM	452 nM	–	–	N#Cc1cccc(S(=O)(=O)c2ccc(CNC(=O)c3cnc4[nH]ncc4c3)nc2)c1 [Example 156, N-[[5-(3-cyanophenyl)sulfonyl-2-pyridyl]methyl]-1H-pyrazolo[3,4-b]pyridine-5-carboxamide]
1.06 nM	0.99 nM	–	–	COc1cc(OC)cc(S(=O)(=O)c2ccc(CNC(=O)c3cc4ccncc4o3)nc2)c1 [Example 112, N-[[5-(3,5-dimethoxyphenyl)sulfonyl-2-pyridyl]methyl]furo[2,3-c]pyridine-2-carboxamide]
–	407 nM	959 nM	–	O=C(NCc1ccc([S+]([O-])c2cc(F)cc(F)c2)cn1)c1ccc2nccn2c1 (racemic) [Example 58, Imidazo[1,2-a]pyridine-6-carboxylic acid [5-(3,5-difluoro-benzenesulfinyl)-pyridin-2-ylmethyl]-amide (racemic)]
19.1 nM	21.8 nM	–	–	O=C(NCc1ccc(S(=O)(=O)c2cccc(N3CCOCC3)c2)cn1)c1cc2ccncc2o1 [Example 123, N-[[5-(3-morpholinophenyl)sulfonyl-2-pyridyl]methyl]furo[2,3-c]pyridine-2-carboxamide]
–	33.9 nM	–	56.8 nM	Cc1ccc(S(=O)(=O)c2ccc(CNC(=O)c3ccc4nccn4c3)nc2)cn1 [Example 92, Imidazo[1,2-a]pyridine-6-carboxylic acid [5-(6-methyl-pyridine-3-sulfonyl)-pyridin-2-ylmethyl]-amide]
275 nM	16.2 nM	–	–	O=C(NCc1ccc([S+]([O-])c2cc(F)cc(F)c2)cn1)c1cnc2nccn2c1 (racemic) [Example 24, Imidazo[1,2-a]pyrimidine-6-carboxylic acid [5-(3,5-difluoro-benzenesulfinyl)-pyridin-2-ylmethyl]-amide (racemic)]
106 nM	247 nM	–	–	O=C(NCc1ccc(S(=O)(=O)C2CCN(CC(F)(F)F)CC2)cn1)c1ccc2nccn2c1 [Example 152, N-[[5-[[1-(2,2,2-trifluoroethyl)-4-piperidyl]sulfonyl]-2-pyridyl]methyl]imidazo[1,2-a]pyridine-6-carboxamide]
46.5 nM	39.8 nM	–	–	O=C(NCc1ccc(S(=O)(=O)c2cccc(N3CCOCC3)c2)cn1)c1ccc2nccn2c1 [Example 154, N-[[5-(3-morpholinophenyl)sulfonyl-2-pyridyl]methyl]imidazo[1,2-a]pyridine-6-carboxamide]
–	31.5 nM	–	40.2 nM	O=C(NCc1ccc([S+]([O-])c2cccc(OC(F)(F)F)c2)cn1)c1ccc2nccn2c1 (racemic) [Example 101, Imidazo[1,2-a]pyridine-6-carboxylic acid [5-(3-trifluoromethoxy-benzenesulfinyl)-pyridin-2-ylmethyl]-amide (racemic)]
472 nM	101 nM	–	–	Cn1cc(S(=O)(=O)c2ccc(CNC(=O)c3ccc4nccn4c3)nc2)cn1 [Example 36, Imidazo[1,2-a]pyridine-6-carboxylic acid [5-(1-methyl-1H-pyrazole-4-sulfonyl)-pyridin-2-ylmethyl]-amide]
8.5 nM	2.3 nM	–	–	CN1CCN(c2ccc(S(=O)(=O)c3ccc(CNC(=O)c4cnc5nccn5c4)nc3)cc2)CC1 [Example 48, Imidazo[1,2-a]pyrimidine-6-carboxylic acid {5-[4-(4-methyl-piperazin-1-yl)-benzenesulfonyl]-pyridin-2-ylmethyl)-amide]
25.4 nM	49.1 nM	–	–	O=C(NCc1ccc(S(=O)(=O)c2cncc(C(F)(F)F)c2)cn1)N1Cc2ccncc2C1 [Example 170, N-[[5-[[5-(trifluoromethyl)-3-pyridyl]sulfonyl]-2-pyridyl]methyl]-1,3-dihydropyrrolo[3,4-c]pyridine-2-carboxamide]
217 nM	290 nM	–	–	O=C(NCc1ccc(S(=O)(=O)c2cccc(N3CCOCC3)c2)cn1)c1cnc2[nH]ncc2c1 [Example 157, N-[[5-(3-morpholinophenyl)sulfonyl-2-pyridyl]methyl]-1H-pyrazolo[3,4-b]pyridine-5-carboxamide]
446 nM	16.8 nM	–	–	CS(=O)(=O)c1cccc(S(=O)(=O)c2ccc(CNC(=O)c3cnc4[nH]ncc4c3)nc2)c1 [Example 134, N-[[5-(3-methylsulfonylphenyl)sulfonyl-2-pyridyl]methyl]-1H-pyrazolo[3,4-b]pyridine-5-carboxamide]
–	48.5 nM	–	24.6 nM	COc1ccc(S(=O)(=O)c2ccc(CNC(=O)c3cnc4[nH]ncc4c3)nc2)cc1OC [Example 70, 1H-Pyrazolo[3,4-b]pyridine-5-carboxylic acid [5-(3,4-dimethoxy-benzenesulfonyl)-pyridin-2-ylmethyl]-amide]
20.4 nM	27.8 nM	–	–	CN(C)c1ccc(S(=O)(=O)c2ccc(CNC(=O)c3cnc4[nH]ncc4c3)nc2)cn1 [Example 84, 1H-Pyrazolo[3,4-b]pyridine-5-carboxylic acid [5-(6-dimethylamino-pyridine-3-sulfonyl)-pyridin-2-ylmethyl]-amide]
4.97 nM	6.6 nM	–	–	CN(C)c1ncc(S(=O)(=O)c2ccc(CNC(=O)N3Cc4ccncc4C3)nc2)s1 [Example 98, 1,3-Dihydro-pyrrolo[3,4-c]pyridine-2-carboxylic acid [5-(2-dimethylamino-thiazole-5-sulfonyl)-pyridin-2-ylmethyl)-amide]
91 nM	56.3 nM	–	–	O=C(NCc1ccc(S(=O)(=O)c2cc(F)cc(F)c2)cn1)c1cnc2[nH]ncc2c1 [Example 1, 1H-Pyrazolo[3,4-b]pyridine-5-carboxylic acid [5-(3,5-difluoro-benzenesulfonyl)-pyridin-2-ylmethyl]-amide]
